# Experimental data from patent US20200360391A1, “Medicinal Composition for Treating Intractable Heart Disease” (Osaka University, priority 2016, published 2020).
# “Also recorded” adds a separate entry of the source. Structures can show the parent of a compound that is named as a salt. Where two headings read alike, the source gives them in different places. Marks after values point to notes of the source that are not given here.
# What was measured:
# [1] = tested on: spontaneous dilated cardiomyopathy (J2N-k) hamster model; assay: Spontaneous dilated cardiomyopathy (J2N-k) hamster model, 8-week administration from 20 weeks of age (Tests 1-3): echocardiography, body weight; details: for Minimal effective dose (screening 2): mg/kg twice per day, oral preparation
# Description: The doses of pharmaceutical products were determined based on the no-observed-adverse-effect levels in a long-term toxicity study using rats. δ-Glycan-deficient spontaneous dilated cardiomyopathy (J2N-k) male hamsters (Japan SLC, Inc.) were delivered at 18 weeks of age. After a 2-week quarantine/acclimation, echocardiography was performed.
# Each of the pharmaceutical products (A to K and O) was individually administered twice daily (at an interval of 8 hours or more) by oral gavage, and echocardiography was performed after 4 and 8 weeks (before dissection). Differences from the value before the start of administration (at the time of grouping) (amount of change: Δ) in each group were examined, and the cardiac function (EF value, FS %, etc.) was compared with that in the vehicle group (Group 1). Moreover, the heart was removed […] after the start of administration, and electron microscopy and RNA protein measurement were performed. Specimens for immunopathology were also collected and evaluated.
# Each pharmaceutical product was individually suspended in 0.5% CMC-Na (sodium carboxymethylcellulose; Wako Pure Chemical Industries, Ltd.) before use, and administered. […] To Group 1 (control), 0.5% CNC-Na (vehicle) was administered.
# Each pharmaceutical product was individually suspended in 0.5% CMC-Na (sodium carboxymethylcellulose; Wako Pure Chemical Industries, Ltd.) before use, and administered. Test substance G was suspended in distilled water before use, and administered.
# Reason the doses were set (assuming that the adult body weight was 60 kg, the same amounts as the maximum clinical doses were set) • 1) The clinical dose of C (ozagrel; OZ) was 200 mg twice per day. The dose was thus set to 3.3 mg/kg twice per day. • 2) The clinical dose of D (cilostazol; CS) was 100 mg twice per day. The dose was thus set to 1.7 mg/kg twice per day. • 3) The clinical dose of E (pirfenidone; PF) was 600 mg three times per day, i.e., 1800 mg/day in total. The dose was thus set to 15 mg/kg twice per day. • 4) The clinical dose of G (nintedanib sulfonate; OB) was 150 mg twice per day. The dose was thus set to 2.5 mg/kg twice per day. • 5) The clinical dose of P (carvedilol; CV) was 10 mg twice per day. The dose was thus set to 0.17 mg/kg twice per day. • 6) Preparation 2 (PLGA⋅MS preparation of camostat; B⋅MS): the clinical dose of active substance camostat was 200 mg three times per day, i.e., 600 mg/day in total; thus, intermittent subcutaneous administration at a daily dose of 10 mg/kg once every 4 weeks, twice in total was set. The dose was 1/28 of the total oral dose amount.
# The dose volume in oral administration was 5 mL/kg (the amount of liquid to be administered to each animal was calculated based on the most recent body weight), and administered by oral gavage using a polypropylene disposable syringe and a rat stomach tube.
# The administration period of each pharmaceutical product was 8 weeks.
# [2] = cited from earlier work; for Cases with side effects (including laboratory test value abnormality): share of cases evaluated for safety
# rats [3] = assay: Repeated oral administration toxicity study in rats (dose-setting basis); details: mg/kg twice per day, oral preparation
# Description: The dose-setting basis for the doses of the test substances used in pharmacological tests is as described below.
# [4] = tested on: rat coronary artery complete ischemia model; assay: Model of ischemia (MI) by rat coronary artery complete ligation (Tests 1 and 2): echocardiography, body weight; details: MI Test 2, B 150, G 5, I 30, C 10 mg/kg p.o. b.i.d.; for Body weight: B MS 100, C MS 50, I MS 30 mg/kg s.c. single injection, mean; for value of change in E.F. compared with E.F. on Day 1 / value of change in F.S. compared with F.S. on Day 1: B-MS 100, C-MS 50, F-MS 30 mg/kg s.c. single injection, mean ± S.D.
# rats [5] = details: cited from earlier work
# [6] = tested on: spontaneous dilated cardiomyopathy J2N-k baby hamsters; assay: J2N-k baby hamsters (Test 4): administration alone or in combination, echocardiography, body weight; type: in vivo, hamster; details: for % FS / EF (%) / value of change in E.F. compared with E.F. at 0 W / value of change in F.S. compared with F.S. at 0 W: Test 4, dose O 0.17, C 3.3, E 15, orally twice daily, mean ± S.D.
# Description: δ-Glycan-deficient spontaneous dilated cardiomyopathy (J2N-k) male hamsters (Japan SLC, Inc.) were delivered at 4 weeks of age. After a 1-week quarantine/acclimation, echocardiography was performed. The hamsters were grouped by stratified random assignment based on the EF values and the body weights so that each administration group was equalized.
# Each test substance was individually administered twice daily (at an interval of 8 hours or more) by oral gavage, and echocardiography was performed 4 and 8 weeks after the start of administration (before dissection). Differences from the value before the start of administration (at the time of grouping) (amount of change: A) in each group were examined, and the cardiac function (EF value, FS %, etc.) was compared with that in the vehicle group (Group 1).
# The doses were set according to the dose-setting basis in Test 3, and similarly orally administered twice daily. Effects of administration of combinations of two or three of carvedilol, which is a β-blocker widely used clinically, and ozagrel and/or pirfenidone were examined.
# rats [7] = details: rats, cited from earlier work
# [8] = Test 2, p.o. b.i.d., NOAEL-based dose
# [9] = Test 4, p.o. b.i.d., clinical dose
# [10] = Test 2, p.o. b.i.d., NOAEL-based dose, listed as lovastatin
molecule,measurement,setting,value
"Cn1c(=O)c2[nH]cnc2n(C)c1=O [Compound H, Theophylline]",LVIDd 4 W,"[1]; Test 2, p.o. b.i.d.",7.0 mm
same,LVIDd 8 W,"[1]; Test 2, p.o. b.i.d.",7.3 mm
same,LVIDs 4 W,"[1]; Test 2, p.o. b.i.d.",5.9 ± mm
same,LVIDs 8 W,"[1]; Test 2, p.o. b.i.d.",6.3 mm
same,% FS 4 W,[1]; [8],not significantly higher
same,% FS value of change at 4 W compared with 0 W,[1]; [8],not significantly higher
same,Body weight 0 W,"[1]; hamster, in vivo",121.4 g
same,Body weight 1 W,"[1]; hamster, in vivo, po",120.2 g
same,Body weight 2 W,"[1]; hamster, in vivo, po",120.2 g
same,Body weight 3 W,"[1]; hamster, in vivo, po",121.0 g
same,Body weight 4 W,"[1]; hamster, in vivo, po",122.4 g
same,Body weight 6 W,"[1]; hamster, in vivo, po",122.6 g
same,Body weight 8 W,"[1]; hamster, in vivo, po",123.6 g
same,Headache (headache/heavy-headedness) cases,"[2]; human, in vivo",2.56%
same,Nausea cases (cilostazol: nausea/vomiting),"[2]; human, in vivo",4.05%
same,Palpitations cases,"[2]; human, in vivo",1.17%
same,Cases with side effects (including laboratory test value abnormality),[2],9.05%
"CCCc1nn(C)c2c(=O)[nH]c(-c3cc(S(=O)(=O)N4CCN(C)CC4)ccc3OCC)nc12 [Compound I, Sildenafil citrate]",Body weight 0 W,"[1]; Test 2, at grouping",120.4 g
same,LVIDd 4 W,"[1]; Test 2, p.o. b.i.d.",7.1 mm
same,LVIDd 8 W,"[1]; Test 2, p.o. b.i.d.",7.3 mm
same,LVIDs 4 W,"[1]; Test 2, p.o. b.i.d.",5.9 mm
same,LVIDs 8 W,"[1]; Test 2, p.o. b.i.d.",6.2 ± mm
same,Body weight 2 W,[1]; [8],122.3 g
same,Body weight 3 W,[1]; [8],123.7 g
same,Body weight 4 W,[1]; [8],125.5 g
same,Body weight 5 W,[1]; [8],126.9 g
same,Body weight 6 W,[1]; [8],128.9 g
same,Minimal effective dose (screening 2),[1],0.4 mg/kg
same,Maximum no-observed-adverse-effect level (screening 1),rats [3],30 mg/kg
same,Body weight,[4]; 1 Day,240.3 g
same,Body weight,[4]; 7 Day,237.3 g
same,Body weight,[4]; 14 Day,263.0 g
same,value of change in E.F. compared with E.F. on Day 1,[4]; 14 Day,<−5.1 ± 2.5> %
same,value of change in F.S. compared with F.S. on Day 1,[4]; 14 Day,<−2.8 ± 1.4> %
same,Body weight,[4]; 21 Day,278.3 g
same,Body weight,[4]; 29 Day,297.5 g
same,value of change in E.F. compared with E.F. on Day 1,[4]; 29 Day,<−7.6 ± 4.3> %
same,value of change in F.S. compared with F.S. on Day 1,[4]; 29 Day,<−4.1 ± 2.3> %
same,Lethal dose,rats [5]; intravenous injection in rats,≥ 10 mg/kg
same,Lethal dose,rats [5]; oral administration,≥ 1000 mg/kg
"COc1ccccc1OCCNCC(O)COc1cccc2[nH]c3ccccc3c12 (stereo not shown) [Compound O, Carvedilol]","Cardiac function (EF, FS %) actual measured value and/or amount of change compared with control, 8 W value","[1]; Test 3, clinical dose",significant cardiac function improvement effect
same,"Cardiac function (EF, FS %) actual measured value or change rate compared with control, 4 W value","[1]; Test 3, clinical dose",significant cardiac function improvement effect
same,Cardiac function improvement effect,"[1]; Test 3, clinical dose, summary",cardiac function improvement effect was observed
same,Minimal effective dose (screening 2),[1],0.17 mg/kg
same,Body weight 0 W,"[6]; Test 4, at grouping",71.5 g
same,Action on decrease in left ventricular systolic function,"[6]; Test 4, clinical doses p.o. b.i.d., 8 weeks",significant suppression action on a decrease in left ventricular systolic function; also recorded: action of significantly suppressing a decrease in left ventricular systolic function
same,Body weight 2 W,[6]; [9],84.2 g
same,Body weight 4 W,[6]; [9],92.6 g
same,Body weight 5 W,[6]; [9],97.8 g
same,Body weight 6 W,[6]; [9],101.3 g
same,Body weight 7 W,[6]; [9],104.0 g
same,Body weight 8 W,[6]; [9],106.1 g
same,% FS,[6]; 0 W (start of administration),38.8 ± 3.0%
same,EF (%),[6]; 0 W (start of administration),76.9 ± 3.4%
same,% FS,[6]; 4 W,34.4 ± 1.8%
same,EF (%),[6]; 4 W,71.7 ± 2.3%
same,value of change in E.F. compared with E.F. at 0 W,[6]; 4 W,<−5.2 ± 2.3> %
same,value of change in F.S. compared with F.S. at 0 W,[6]; 4 W,<−4.4 ± 2.1> %
same,% FS,[6]; 8 W,30.1 ± 1.3%
same,EF (%),[6]; 8 W,65.8 ± 1.9%
same,value of change in E.F. compared with E.F. at 0 W,[6]; 8 W,<−11.1 ± 3.8> %
same,value of change in F.S. compared with F.S. at 0 W,[6]; 8 W,<−8.7 ± 3.2> %
Lovastatin calcium [Compound J],Body weight lower than that in the control group,"[1]; Test 2, 8 weeks after start of administration, 5 mg/kg b.i.d.",about 10%
same,% FS 0 W,"[1]; Test 2, at grouping",17 ± 2%
same,Body weight 0 W,"[1]; Test 2, at grouping",122.9 g
same,EF 0 W,"[1]; Test 2, at grouping",43 ± 3%
same,LVIDd 0 W,"[1]; Test 2, at grouping",6.7 mm
same,LVIDs 0 W,"[1]; Test 2, at grouping",5.6 mm
same,LVIDd 4 W,"[1]; Test 2, p.o. b.i.d.",7.1 mm
same,LVIDd 8 W,"[1]; Test 2, p.o. b.i.d.",7.4 mm
same,LVIDs 4 W,"[1]; Test 2, p.o. b.i.d.",6.0 mm
same,LVIDs 8 W,"[1]; Test 2, p.o. b.i.d.",6.3 ± mm
same,% FS 4 W,[1]; [8],15 ± 1%
same,% FS 8 W,[1]; [8],14 ± 1%
same,% FS value of change at 4 W compared with 0 W,[1]; [8],<−2 ± 1> %
same,% FS value of change at 8 W compared with 0 W,[1]; [8],<−3 ± 1> %
same,Body weight 3 W,[1]; [8],120.8 g
same,Body weight 5 W,[1]; [8],120.3 * g
same,Body weight 7 W,[1]; [8],118.7 ** g
same,Body weight 8 W,[1]; [8],118.0 * g
same,EF 4 W,[1]; [8],39 ± 2%
same,EF 8 W,[1]; [8],37 ± 2%
same,EF value of change at 4 W compared with 0 W,[1]; [8],<−4 ± 1> %
same,EF value of change at 8 W compared with 0 W,[1]; [8],<−6 ± 3> %
same,% FS 4 W,[1]; [10],not significantly higher
same,% FS value of change at 4 W compared with 0 W,[1]; [10],significantly higher
same,LVIDs 8 W,"[1]; Test 2, p.o. b.i.d., listed as lovastatin",significantly lower
same,No-observed-adverse-effect level,rats [7]; 1 month,15 mg/kg
same,No-observed-adverse-effect level,rats [7]; 6 months,2 mg/kg
same,No-observed-adverse-effect level,rats [7]; 13 weeks / 3 months,10 mg/kg
same,CK (CPK) elevation cases,"[2]; human, in vivo",1.6%
same,Elevated AST (GOT) and/or ALT (GPT) / liver enzyme cases,"[2]; human, in vivo",1.7%
same,Muscle pain cases,"[2]; human, in vivo",3.2%
same,Cases with side effects (including laboratory test value abnormality),[2],18.8%
